According to patent publication US20260070902A1, “SULFONYL DERIVATIVES AS CCR6 INHIBITORS” (Hoffmann-La Roche Inc., priority 2022, published 2026):

Biological target: T1, human CCR6 (Homo sapiens, UniProt P51684)
T1 sequence (P51684 1-374): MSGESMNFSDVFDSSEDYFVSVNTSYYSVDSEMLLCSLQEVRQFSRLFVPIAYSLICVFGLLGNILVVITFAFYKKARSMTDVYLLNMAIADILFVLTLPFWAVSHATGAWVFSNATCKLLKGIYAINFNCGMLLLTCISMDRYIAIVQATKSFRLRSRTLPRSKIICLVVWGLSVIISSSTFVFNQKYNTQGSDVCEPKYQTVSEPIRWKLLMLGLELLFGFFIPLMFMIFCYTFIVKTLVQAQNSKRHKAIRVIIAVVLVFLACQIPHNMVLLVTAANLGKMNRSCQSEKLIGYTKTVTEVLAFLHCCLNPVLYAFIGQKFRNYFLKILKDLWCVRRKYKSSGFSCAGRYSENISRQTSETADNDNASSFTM
Test: Human CCR6-CRE reporter assay
Type: cell-based
Parameters: The second construct contained the open reading frame of human CCR6 in the pUNO1 backbone; host or cells: 293FT cells
Conditions: relative -Log IC50; 293FT cells transfected with human CCR6 and CRE-luciferase reporter; 6 μM Forskolin, 6 nM CCL20; 5 h
Protocol: Human CCR6-CRE Reporter Assay
293FT cells were transfected with 2 constructs using TransIT-293 (Mirus). The first construct (pGL4.29, Promega) expressed the luciferase reporter gene luc2P in response to the binding of cAMP-induced CREB to the CREelement in its promoter. The second construct contained the open reading frame of human CCR6 in the pUNO1 backbone under the control of an enhanced CMV promoter (InVivoGen). 48 h after transfection, cells were harvested and diluted to 750,000 cells/ml in culture medium (DMEM, 10% FBS, 1× pen/strep (Gibco 15140)). Compounds were 2.5-fold serially diluted in DMSO. Further dilutions were made in assay medium (DMEM, 10% FBS, 1× pen/strep, 6 μM Forskolin, 6 nM CCL20). 4 μl of the compound solution was added to a white MW384 plate, followed by 20 μl of the cell suspension. Final DMSO concentration in the assay was 0.1%. The MW384 plate was placed in an incubator at 37° C., 5% CO2 for 5 h. Luciferase activity was determined by addition of 24 μl of a 2.5× diluted BriteLite luciferase solution (Perkin Elmer), followed by luminescence measurement using a VICTOR Plate reader (Perkin Elmer). […] The relative −Log IC50 was determined with GraphPad Prism 9 using a four-parameter dose-response model.

SMILES	IC50 [nM]
O=S(=O)(c1ccc(-c2ccc3nnc(C4CCCC4)n3c2)cc1)N1CCC(Nc2ccc(S(F)(F)(F)(F)F)cc2)CC1 [Example 31, 1-(4-{3-cyclopentyl-[1,2,4]triazolo[4,3-a]pyridin-6-yl}benzenesulfonyl)-N-[4-(pentafluoro-λ^6-sulfanyl)phenyl]piperidin-4-amine]	63.1
O=c1[nH]cnn2cc(-c3ccc(S(=O)(=O)[C@H]4CC[C@H](Nc5ccc(S(F)(F)(F)(F)F)cc5)CC4)cc3)cc12 [Example 55, 6-(4-{[trans-4-{[4-(pentafluoro-λ^6-sulfanyl)phenyl]Amino}cyclohexyl]sulfonyl}phenyl)-3H,4H-pyrrolo[2,1-f][1,2,4]triazin-4-one]	31.6
NC(=O)c1ccc(-c2ccc(S(=O)(=O)[C@H]3CC[C@H](Nc4ccc(S(F)(F)(F)(F)F)cc4)CC3)cc2)nn1 [Example 62, 6-(4-{[trans-4-{[4-(pentafluoro-λ^6-sulfanyl)phenyl]Amino}cyclohexyl]sulfonyl}phenyl)pyridazine-3-carboxamide]	398
Cc1cc(-c2ccc(S(=O)(=O)[C@H]3CC[C@H](Nc4ccc(S(F)(F)(F)(F)F)cc4)CC3)cc2)cn2c(C(C)C)cnc12 [Example 64, 4-(pentafluoro-λ^6-sulfanyl)-N-[trans-4-{4-[8-methyl-3-(propan-2-yl)imidazo[1,2-a]pyridin-6-yl]benzenesulfonyl}cyclohexyl]aniline]	50.1
O=C1Nc2ccc(-c3ccc(S(=O)(=O)[C@H]4CC[C@H](Nc5ccc(S(F)(F)(F)(F)F)cc5)CC4)cc3)cc2C12CC2 [Example 65, 5′-(4-{[trans-4-{[4-(pentafluoro-λ^6-sulfanyl)phenyl]amino}cyclohexyl]sulfonyl}phenyl)-1′,2′-dihydrospiro[cyclopropane-1,3′-indol]-2′-one]	39.8
Cc1cnc2ccc(-c3ccc(S(=O)(=O)N4CCC(Nc5ccc(S(F)(F)(F)(F)F)cc5)CC4)c(F)c3)cn12 [Example 67, 1-(2-fluoro-4-{3-methylimidazo[1,2-a]pyridin-6-yl}benzenesulfonyl)-N-[4-(pentafluoro-λ^6-sulfanyl)phenyl]piperidin-4-amine]	631
Cc1cnc2ccc(-c3ccc(S(=O)(=O)N4CCC(Nc5ccc(S(F)(F)(F)(F)F)cc5)CC4)cc3F)cn12 [Example 68, 1-(3-fluoro-4-{3-methylimidazo[1,2-a]pyridin-6-yl}benzenesulfonyl)-N-[4-(pentafluoro-λ^6-sulfanyl)phenyl]piperidin-4-amine]	1000
Cc1cnc2ccc(-c3ccc(S(=O)(=O)N4CCC(Nc5ccc(S(F)(F)(F)(F)F)cc5)CC4)nc3)cn12 [Example 70, 1-[(5-{3-methylimidazo[1,2-a]pyridin-6-yl}pyridin-2-yl)sulfonyl]-N-[4-(pentafluoro-λ^6-sulfanyl)phenyl]piperidin-4-amine]	1260
N#Cc1cnc2ccc(-c3ccc(S(=O)(=O)N4CCC(Nc5ccc(S(F)(F)(F)(F)F)cc5)CC4)cc3F)cn12 [Example 71, 6-{2-fluoro-4-[(4-{[4-(pentafluoro-λ^6-sulfanyl)phenyl]Amino}piperidin-1-yl)sulfonyl]phenyl}imidazo[1,2-a]pyridine-3-carbonitrile]	1000
O=S(=O)(c1ccc(-c2ccc3nccn3c2)c(F)c1)N1CCC(Nc2ccc(S(F)(F)(F)(F)F)cc2)CC1 [Example 72, 1-(3-fluoro-4-{imidazo[1,2-a]pyridin-6-yl}benzenesulfonyl)-N-[4-(pentafluoro-λ^6-sulfanyl)phenyl]piperidin-4-amine]	1580
O=S(=O)(c1ccc(-c2ccc3nccn3c2)cn1)N1CCC(Nc2ccc(S(F)(F)(F)(F)F)cc2)CC1 [Example 75, 1-[(5-{imidazo[1,2-a]pyridin-6-yl}pyridin-2-yl)sulfonyl]-N-[4-(pentafluoro-λ^6-sulfanyl)phenyl]piperidin-4-amine]	1000
N#Cc1cnc2ccc(-c3ccc(S(=O)(=O)N4CCC(Nc5ccc(S(F)(F)(F)(F)F)cc5)CC4)nc3)cn12 [Example 78, 6-{6-[(4-{[4-(pentafluoro-λ^6-sulfanyl)phenyl]Amino}piperidin-1-yl)sulfonyl]pyridin-3-yl}imidazo[1,2-a]pyridine-3-carbonitrile]	1580
O=S(=O)(c1ccc(-c2ccc3nccn3c2)cc1Cl)N1CCC(Nc2ccc(S(F)(F)(F)(F)F)cc2)CC1 [Example 79, 1-(2-chloro-4-{imidazo[1,2-a]pyridin-6-yl}benzenesulfonyl)-N-[4-(pentafluoro-λ^6-sulfanyl)phenyl]piperidin-4-amine]	1580
N#Cc1cnc2ccc(-c3ccc(S(=O)(=O)N4CCC(Nc5ccc(S(F)(F)(F)(F)F)cc5)CC4)c(Cl)c3)cn12 [Example 80, 6-{3-chloro-4-[(4-{[4-(pentafluoro-λ^6-sulfanyl)phenyl]Amino}piperidin-1-yl)sulfonyl]phenyl}imidazo[1,2-a]pyridine-3-carbonitrile]	2000
N=S(=O)(c1ccc(-c2ccc3nccn3c2)cc1)[C@H]1CC[C@@H](Nc2ccc(S(F)(F)(F)(F)F)cc2)CC1 (stereo partly drawn) [Example 88, (4-{imidazo[1,2-a]pyridin-6-yl}phenyl)[cis-4-{[4-(pentafluoro-λ^6-sulfanyl)phenyl]Amino}cyclohexyl](imino)-λ^6-sulfanone]	794

Next, values leading:

IC50 [nM]	SMILES
501	Cc1n[nH]c2ccc(-c3ccc(S(=O)(=O)[C@H]4CC[C@@H](Nc5ccc(S(F)(F)(F)(F)F)cc5)CC4)cc3)cc12 [Example 5, 4-(pentafluoro-λ^6-sulfanyl)-N-[cis-4-[4-(3-methyl-2H-indazol-5-yl)benzenesulfonyl]cyclohexyl]aniline]
1260	N#Cc1c[nH]c2ccc(-c3ccc(S(=O)(=O)[C@H]4CC[C@@H](Nc5ccc(S(F)(F)(F)(F)F)cc5)CC4)cc3)cc12 [Example 8, 5-(4-{[cis-4-{[4-(pentafluoro-λ^6-sulfanyl)phenyl]Amino}cyclohexyl]sulfonyl}phenyl)-1H-indole-3-carbonitrile]
794	N#Cc1cnc2ccc(-c3ccc(S(=O)(=O)[C@H]4CC[C@@H](Nc5ccc(S(F)(F)(F)(F)F)cc5)CC4)cc3)cn12 [Example 17, 6-(4-{[cis-4-{[4-(pentafluoro-λ^6-sulfanyl)phenyl]Amino}cyclohexyl]sulfonyl}phenyl)imidazo[1,2-a]pyridine-3-carbonitrile]
1580	CN(C)C(=O)c1ccc(-c2ccc(S(=O)(=O)[C@H]3CC[C@@H](Nc4ccc(S(F)(F)(F)(F)F)cc4)CC3)cc2)nc1 [Example 45, N,N-dimethyl-6-(4-{[cis-4-{[4-(pentafluoro-λ^6-sulfanyl)phenyl]Amino}cyclohexyl]sulfonyl}phenyl)pyridine-3-carboxamide]
251	CN(C)C(=O)c1ccc(-c2ccc(S(=O)(=O)[C@H]3CC[C@H](Nc4ccc(S(F)(F)(F)(F)F)cc4)CC3)cc2)nc1 [Example 46, N,N-dimethyl-6-(4-{[trans-4-{[4-(pentafluoro-λ^6-sulfanyl)phenyl]Amino}cyclohexyl]sulfonyl}phenyl)pyridine-3-carboxamide]
39.8	O=c1cc(-c2ccc(S(=O)(=O)[C@H]3CC[C@H](Nc4ccc(S(F)(F)(F)(F)F)cc4)CC3)cc2)cc[nH]1 [Example 52, 4-(4-{[trans-4-{[4-(pentafluoro-λ^6-sulfanyl)phenyl]Amino}cyclohexyl]sulfonyl}phenyl)-1,2-dihydropyridin-2-one]
79.4	O=C1Cc2ccc(-c3ccc(S(=O)(=O)[C@H]4CC[C@H](Nc5ccc(S(F)(F)(F)(F)F)cc5)CC4)cc3)cc2CN1 [Example 53, 7-(4-{[trans-4-{[4-(pentafluoro-λ^6-sulfanyl)phenyl]Amino}cyclohexyl]sulfonyl}phenyl)-1,2,3,4-tetrahydroisoquinolin-3-one]
50.1	O=C1Cc2cc(-c3ccc(S(=O)(=O)[C@H]4CC[C@H](Nc5ccc(S(F)(F)(F)(F)F)cc5)CC4)cc3)ccc2CN1 [Example 54, 6-(4-{[trans-4-{[4-(pentafluoro-λ^6-sulfanyl)phenyl]Amino}cyclohexyl]sulfonyl}phenyl)-1,2,3,4-tetrahydroisoquinolin-3-one]
200	CP(C)(=O)c1ccc(-c2ccc(S(=O)(=O)[C@H]3CC[C@H](Nc4ccc(S(F)(F)(F)(F)F)cc4)CC3)cc2)cc1 [Example 57, 4-(pentafluoro-λ^6-sulfanyl)-N-[trans-4-{[4′-(dimethylphosphoryl)-[1,1′-biphenyl]-4-yl]sulfonyl}cyclohexyl]aniline]
